Assay results: patent US11246876B2, “Anti-cancer effects of JAK2 inhibitors in combination with thalidomide derivatives and glucocorticoids” (OncoTracker, Inc., priority 2014, dated 2022)

Columns and labels:
[1] = test system: LAGκ-2 tumors; assay: LAGκ-2 human multiple myeloma xenograft in SCID mice; assay type: in vivo; conditions: dosing as for LAGκ-1A (dexamethasone 1.5 mg/kg for LAGκ-2)
Protocol: (§1) The combination of the JAK2 inhibitor ruxolitinib with lenalidomide and dexamethasone was tested on human multiple myeloma tumors in vivo. The anti-multiple myeloma effects of ruxolitinib were evaluated with mice bearing either LAGκ-1A (bortezomib- and melphalan-sensitive) or LAGκ-2 (bortezomib- and melphalan-resistant) tumors, both of which were originally derived from bone marrow biopsies from multiple myeloma patients. These tumors closely resemble human multiple myeloma and have been passaged through multiple generations of mice with consistent growth and chemoresistance patterns.
In another experiment, mice received an intramuscular implantation of LAGκ-2 tumor tissue, and then underwent treatment with vehicle control, ruxolitinib, dexamethasone, lenalidomide, ruxolitinib and dexamethasone, ruxolitinib and lenalidomide, dexamethasone and lenalidomide, or ruxolitinib with lenalidomide and dexamethasone, as described above (see FIG. 8B). Similar to the effects on LAGκ-1A tumors, when ruxolitinib, lenalidomide, or dexamethasone was administered individually, LAGκ-2 tumor growth was not inhibited compared to control.
(§2) Six- to 8-week-old male severe combined immunodeficient (SCID) mice were obtained from the Jackson Laboratory (Bar Harbor, Me., USA) and maintained in a specific pathogen-free area in our animal resources facility. Human myeloma tumors (LAGκ-1A or LAGκ-2) which have been maintained in our laboratory for many years were excised from an anaesthetized tumor containing donor mouse, sectioned into 20-40 mm3 pieces, and surgically implanted into the left superficial gluteal muscle of the anaesthetized naive SCID mice. Recipient mice received weekly injections of anti-asialo GM1 rabbit serum (Wako Bioproducts, Richmond, Va., USA) to further suppress immune activity and allow growth of the human tumor. All animal studies were conducted according to protocols approved by the Institutional Animal Care and Use Committee. Animals were anaesthetized with ketamine, xylazine, and isoflurane prior to surgery and were euthanized when tumors reached 2 cm in diameter. […]

[2] = test system: LAGκ-1A tumors; assay: LAGκ-1A human multiple myeloma xenograft in SCID mice; assay type: in vivo; conditions: ruxolitinib 1.5 mg/kg i.p. twice daily, dexamethasone 1 mg/kg i.p. once daily, lenalidomide 15 mg/kg oral gavage once daily
Protocol: as §1
Following intramuscular implantation of LAGκ-1A tumor tissue, mice underwent treatment with vehicle control, ruxolitinib, dexamethasone, lenalidomide, ruxolitinib and dexamethasone, ruxolitinib and lenalidomide, dexamethasone and lenalidomide, or ruxolitinib with lenalidomide and dexamethasone (see FIG. 8A). Ruxolitinib was administered via injection at 1.5 mg/kg i.p., twice daily; dexamethasone was administered at 1 mg/kg i.p., once daily, and lenalidomide was administered via oral gavage at 15 mg/kg, once daily. When ruxolitinib, lenalidomide, or dexamethasone was administered individually, LAGκ-1A tumor growth was not inhibited compared to control.
as §2, with “Committee.” for “Committee. Animals were anaesthetized with ketamine, xylazine, and isoflurane prior to surgery and were euthanized when tumors reached 2 cm in diameter.”

C[C@@H]1C[C@H]2[C@@H]3CCC4=CC(=O)C=C[C@]4(C)[C@@]3(F)[C@@H](O)C[C@]2(C)[C@@]1(O)C(=O)CO [dexamethasone]
LAGκ-2 tumor growth compared to control [1]: not inhibited
LAGκ-1A tumor growth compared to control [2]: not inhibited

Nc1cccc2c1CN(C1CCC(=O)NC1=O)C2=O (stereo not drawn) [lenalidomide]
LAGκ-2 tumor growth compared to control [1]: not inhibited
LAGκ-1A tumor growth compared to control [2]: not inhibited

N#CC[C@H](C1CCCC1)n1cc(-c2ncnc3[nH]ccc23)cn1 [ruxolitinib]
LAGκ-2 tumor growth compared to control [1]: not inhibited
LAGκ-1A tumor growth compared to control [2]: not inhibited
